Assay: Thermal stability by thermogravimetric analysis (TGA)
Format: physicochemical
Details: at relevant processing temperatures (<250° C.)
Method: Prior to thermokinetic processing, thermal stability of BI 667 was assessed using thermogravimetric analysis (TGA). BI 667 was considered stable (<1% mass loss on TGA) at relevant processing temperatures (<250° C.). […] (data not shown). […] Thus, a max processing temperature (and therefore ejection set point temperature) of the mixture was set at 160° C. TGA was performed on a TGA/DSC 1 (Mettler Toledo, Schwerzenbach, Switzerland). The temperature ramp utilized in this study was performed from 25 to 300° C. at a rate of 5° C./min with a nitrogen purge of 50 mL/min. Data were analyzed using STARE System.

For `CS(=O)(=O)c1cc(C2(NC(=O)c3cncc4c3cnn4-c3ccc(F)cc3)CC2)ccn1` [BI 667], which “mass loss on TGA” value is on record?
The value was less than 1%.
